Experimental findings from patent publication US10399972B2, “Tricyclic compounds as inhibitors of mutant IDH enzymes” (Merck Sharp & Dohme Corp., priority 2015, dated 2019) are described below.

As a reminder, the IC50 is the concentration needed to halve the response being measured.

R132H mutant IDH1 enzyme, sequence (O75874 whole entry R132H): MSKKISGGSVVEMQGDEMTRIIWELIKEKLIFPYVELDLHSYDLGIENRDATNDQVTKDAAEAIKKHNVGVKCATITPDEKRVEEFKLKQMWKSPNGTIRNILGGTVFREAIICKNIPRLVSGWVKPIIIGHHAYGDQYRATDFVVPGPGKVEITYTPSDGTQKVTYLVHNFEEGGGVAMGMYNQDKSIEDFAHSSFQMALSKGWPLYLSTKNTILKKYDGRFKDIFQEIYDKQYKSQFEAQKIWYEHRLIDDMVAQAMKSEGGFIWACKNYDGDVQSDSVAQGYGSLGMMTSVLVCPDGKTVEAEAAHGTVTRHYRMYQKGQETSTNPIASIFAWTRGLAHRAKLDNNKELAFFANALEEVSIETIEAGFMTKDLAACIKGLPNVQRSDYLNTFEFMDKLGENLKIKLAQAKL

The target in this assay is R132H mutant IDH1 enzyme (Homo sapiens (Human), UniProt O75874, R132H). As to the kind of experiment: R132H IDH1 Enzymatic Assay. Conditions: 1.5 nM final, 30 min preincubation, 60 min reaction, Kinase-GLO luminescence. In kind it is biochemical. As for the experimental part:
R132H IDH1 Enzymatic Assay
Each test compound (10 mM stock in DMSO) is diluted in DMSO to make a 10-point, 3-fold dilution series. 125 nL of each dilution or DMSO alone is dispensed to a 384-well Greiner Lumitrac 200 assay plate using an Echo® Liquid Handler. To each well of the plate is added 20 uL of enzyme in assay buffer or assay buffer alone. Assay buffer consists of 50 mM sodium phosphate, pH 7.0, 50 mM magnesium chloride, 50 mM sodium chloride, and 0.01% (w/v) bovine serum albumin. When present, the R132H mutant IDH1 enzyme is at a working concentration of 1.875 nM (final concentration in assay of 1.5 nM). The assay plate is allowed to incubate for 30 minutes at room temperature and 5 uL of 5× substrate mixture (2.5 uM nicotinamide adenine dinucleotide phosphate, 100 uM adenosine diphosphate, 7.5 mM glyceraldehyde-3-phosphate, 7.5 ug/mL of spinach glyceraldehyde-3-phosphate dehydrogenase, 25 nM phosphoglycerate kinase, and 5 mM alpha-ketoglutarate in assay buffer) is added to all wells. The reaction plate is incubated for 60 minutes followed by addition of 25 uL of Promega Kinase-GLO reagent to all wells and 10-minute incubation.
Luminescence is measured using a PerkinElmer Envision plate reader. The percent activity of each dilution is determined as the ratio of background corrected signal to the background corrected signal of wells receiving only DMSO. IC50 values are determined by fitting percent activity data to a four-parameter logistic dose response equation. The IC50 values of the exemplified compounds are included in Table 8.
Background: Kinase-Glo reads ATP consumption through a luciferase reaction.
Regarding `CC(C)O[C@H]1CC[C@H](C(=O)N2Cc3cc(F)cnc3Nc3cc(F)c(N4CC5CCC4CO5)cc32)OC1` (stereo partly drawn) [Example 44, (8-(2-oxa-5-azabicyclo[2.2.2]octan-5-yl)-3,9-difluoro-5,11-dihydro-6H-benzo[b]pyrido[2,3-e][1,4]diazepin-6-yl)((2R,5S)-5-isopropoxytetrahydro-2H-pyran-2-yl)methanone], the IC50 came to 11.4 nM.
As for `CC(C)O[C@H]1CC[C@H](C(=O)N2Cc3cc(F)cnc3Nc3cc(F)c(N4CC5(CCCOC5)C4)cc32)OC1` [Example 45, (3,9-Difluoro-8-(6-oxa-2-azaspiro[3.5]nonan-2-yl)-5H-benzo[b]pyrido[2,3-e][1,4]diazepin-6(11H)-yl)((2R,5S)-5-isopropoxytetrahydro-2H-pyran-2-yl)methanone], the figure is 18.3 nM; as for `CC(C)O[C@H]1CC[C@H](C(=O)N2Cc3cc(F)cnc3Nc3cc(F)c(N4C[C@@H]5C[C@H]4CO5)cc32)OC1` [Example 46, (8-((1S,4S)-2-oxa-5-azabicyclo[2.2.1]heptan-5-yl)-3,9-difluoro-5,11-dihydro-6H-benzo[b]pyrido[2,3-e][1,4]diazepin-6-yl)((2R,5S)-5-isopropoxytetrahydro-2H-pyran-2-yl)methanone], 17.9 nM.
Under `CO[C@H]1C[C@H]2CC[C@@H](C1)N2c1cc2c(cc1F)Nc1ncc(F)cc1CN2C(=O)[C@H]1CC[C@H](OC(C)C)CO1` [Example 47, (3,9-difluoro-8-((1R,3S,5S)-3-methoxy-8-azabicyclo[3.2.1]octan-8-yl)-5,11-dihydro-6H-benzo[b]pyrido[2,3-e][1,4]diazepin-6-yl)((2R,5S)-5-isopropoxytetrahydro-2H-pyran-2-yl)methanone] stands 15.8 nM; under `CC(C)O[C@H]1CC[C@H](C(=O)N2Cc3cc(F)cnc3Nc3ccc(N4C[C@H]5CC[C@@H]4CO5)cc32)OC1` [Example 48, (8-((1R,4R)-2-oxa-5-azabicyclo[2.2.2]octan-5-yl)-3-fluoro-5,11-dihydro-6H-benzo[b]pyrido[2,3-e][1,4]diazepin-6-yl)((2R,5S)-5-isopropoxytetrahydro-2H-pyran-2-yl)methanone], 10 nM.
As for `Cn1nccc1-c1cc2c(cc1F)Nc1ncc(F)cc1CN2C(=O)C1CCN(CC(F)(F)F)CC1` [Example 50, (3,9-Difluoro-8-(1-methyl-1H-pyrazol-5-yl)-5,11-dihydro-6H-benzo[b]pyrido[2,3-e][1,4]diazepin-6-yl)(1-(2,2,2-trifluoroethyl)piperidin-4-yl)methanone], the figure is 3.5 nM.
Regarding `O=C(C1CCN(CC(F)(F)F)CC1)N1Cc2cc(F)cnc2Nc2cc(F)c(-c3ccn[nH]3)cc21` [Example 51, (3,9-difluoro-8-(1H-pyrazol-5-yl)-5,11-dihydro-6H-benzo[b]pyrido[2,3-e][1,4]diazepin-6-yl)(1-(2,2,2-trifluoroethyl)piperidin-4-yl)methanone], it took 3.6 nM to reach half-maximal inhibition (IC50).
As for `Cn1cc(-c2cc3c(cc2F)Nc2ncccc2CN3C(=O)C2CCN(CC(F)(F)F)CC2)cn1` [Example 52, (9-Fluoro-8-(1-methyl-1H-pyrazol-4-yl)-5,11-dihydro-6H-benzo[b]pyrido[2,3-e][1,4]diazepin-6-yl)(1-(2,2,2-trifluoroethyl)piperidin-4-yl)methanone], the figure is 5.7 nM.
As for `Cn1nccc1-c1cc2c(cc1F)Nc1ncccc1CN2C(=O)C1CCN(CC(F)(F)F)CC1` [Example 53, (9-fluoro-8-(1-methyl-1H-pyrazol-5-yl)-5,11-dihydro-6H-benzo[b]pyrido[2,3-e][1,4]diazepin-6-yl)(1-(2,2,2-trifluoroethyl)piperidin-4-yl)methanone], the figure is 7.2 nM; as for `O=C(C1CCN(CC(F)(F)F)CC1)N1Cc2cc(F)cnc2Nc2ccc([C@H]3COCCO3)cc21` [Example 54, (S)-(8-(1,4-Dioxan-2-yl)-3-fluoro-5,11-dihydro-6H-benzo[b]pyrido[2,3-e][1,4]diazepin-6-yl)(1-(2,2,2-trifluoroethyl)piperidin-4-yl)methanone], 5.6 nM; as for `O=C(C1CCN(CC(F)(F)F)CC1)N1Cc2cc(F)cnc2Nc2ccc([C@@H]3COCCO3)cc21` [Example 55, (R)-(8-(1,4-dioxan-2-yl)-3-fluoro-5,11-dihydro-6H-benzo[b]pyrido[2,3-e][1,4]diazepin-6-yl)(1-(2,2,2-trifluoroethyl)piperidin-4-yl)methanone], 6.5 nM.
As for `O=C(C1CCN(CC(F)(F)F)CC1)N1Cc2cccnc2Nc2cc(F)c([C@@H]3COCCO3)cc21` [Example 56, (R)-(8-(1,4-Dioxan-2-yl)-9-fluoro-5,11-dihydro-6H-benzo[b]pyrido[2,3-e][1,4]diazepin-6-yl)(1-(2,2,2-trifluoroethyl)piperidin-4-yl)methanone], the figure is 18.1 nM.
Molecule `O=C(C1CCN(CC(F)(F)F)CC1)N1Cc2cccnc2Nc2cc(F)c([C@H]3COCCO3)cc21` [Example 57, (S)-(8-(1,4-dioxan-2-yl)-9-fluoro-5,11-dihydro-6H-benzo[b]pyrido[2,3-e][1,4]diazepin-6-yl)(1-(2,2,2-trifluoroethyl)piperidin-4-yl)methanone] yielded an IC50 of 12.2 nM.
As for `Cc1cc2c(cc1N1C[C@@H]3CC[C@H]1CO3)N(C(=O)[C@H]1CC[C@H](OC(C)C)CC1)Cc1cccnc1N2` [Example 58, (trans-4-isopropoxycyclohexyl){9-methyl-8-[(1S,4S)-2-oxa-5-azabicyclo[2.2.2]oct-5-yl]-5,11-dihydro-6H-pyrido[2,3-b][1,5]benzodiazepin-6-yl}methanone], the half-inhibitory concentration (IC50) is 18.3 nM.
Under `Cc1c(N2C[C@@H]3CC[C@H]2CO3)ccc2c1N(C(=O)[C@H]1CC[C@H](OC(C)C)CC1)Cc1cccnc1N2` [Example 59, (trans-4-isopropoxycyclohexyl){7-methyl-8-[(1S,4S)-2-oxa-5-azabicyclo[2.2.2]oct-5-yl]-5,11-dihydro-6H-pyrido[2,3-b][1,5]benzodiazepin-6-yl}methanone] stands 58.7 nM; under `Cc1cc2c(cc1N1C[C@H]3CC[C@@H]1CO3)N(C(=O)[C@H]1CC[C@H](OC(C)C)CC1)Cc1cccnc1N2` [Example 60, (trans-4-isopropoxycyclohexyl){9-methyl-8-[(1R,4R)-2-oxa-5-azabicyclo[2.2.2]oct-5-yl]-5,11-dihydro-6H-pyrido[2,3-b][1,5]benzodiazepin-6-yl}methanone], 25.9 nM.
As for `Cc1c(N2C[C@H]3CC[C@@H]2CO3)ccc2c1N(C(=O)[C@H]1CC[C@H](OC(C)C)CC1)Cc1cccnc1N2` [Example 61, (trans-4-isopropoxycyclohexyl){7-methyl-8-[(1R,4R)-2-oxa-5-azabicyclo[2.2.2]oct-5-yl]-5,11-dihydro-6H-pyrido[2,3-b][1,5]benzodiazepin-6-yl}methanone], the figure is 54.1 nM; as for `CC(C)O[C@H]1CC[C@H](C(=O)N2Cc3cccnc3Nc3cc(F)c(N4CC5CCC4CO5)cc32)CC1` (stereo partly drawn) [Example 62, [9-fluoro-8-(2-oxa-5-azabicyclo[2.2.2]oct-5-yl)-5,11-dihydro-6H-pyrido[2,3-b][1,5]benzodiazepin-6-yl](trans-4-isopropoxycyclohexyl)methanone], 35.2 nM; as for `CC(C)O[C@H]1CC[C@H](C(=O)N2Cc3cccnc3Nc3ccc(N4CC5CCC4CO5)c(F)c32)CC1` (stereo partly drawn) [Example 63, [7-fluoro-8-(2-oxa-5-azabicyclo[2.2.2]oct-5-yl)-5,11-dihydro-6H-pyrido[2,3-b][1,5]benzodiazepin-6-yl](trans-4-isopropoxycyclohexyl)methanone], 57 nM.
`CC(C)O[C@H]1CC[C@H](C(=O)N2Cc3cccnc3Nc3cc(F)c(N4C[C@@H]5C[C@H]4CO5)cc32)OC1` [Example 64, (8-((1S,4S)-2-Oxa-5-azabicyclo[2.2.1]heptan-5-yl)-9-fluoro-5H-benzo[b]pyrido[2,3-e][1,4]diazepin-6(11H)-yl)((2R,5S)-5-isopropoxytetrahydro-2H-pyran-2-yl)methanone] displayed an IC50 of 46.3 nM.
`CC(C)OC1CCC(C(=O)N2c3cc(Cl)ccc3Nc3ncccc3C2C)CC1` (stereo not drawn) [Example 65, (8-Chloro-5-methyl-5,11-dihydro-6H-benzo[b]pyrido[2,3-e][1,4]diazepin-6-yl)(trans-4-isopropoxycyclohexyl)methanone] returned an IC50 of 106 nM.
As for `CC(C)O[C@H]1CC[C@H](C(=O)N2c3cc(N4CCOCC4)ccc3Nc3ncccc3C2C)CC1` (stereo partly drawn) [Example 66, (Trans-4-isopropoxycyclohexyl)(5-methyl-8-morpholino-5,11-dihydro-6H-benzo[b]pyrido[2,3-e][1,4]diazepin-6-yl)methanone], the figure is 71.9 nM; as for `COc1ccc2c(c1)N(C(=O)C1CCN(CC(F)(F)F)CC1)C(C)c1cccnc1N2` (stereo not drawn) [Example 67, (8-Methoxy-5-methyl-5,11-dihydro-6H-benzo[b]pyrido[2,3-e][1,4]diazepin-6-yl)(1-(2,2,2-trifluoroethyl)piperidin-4-yl)methanone], 215 nM; as for `COc1ccc2c(c1)N(C(=O)[C@H]1CC[C@H](OC(C)C)CC1)C(C)c1cccnc1N2` (stereo partly drawn) [Example 68, (Trans-4-isopropoxycyclohexyl)(8-methoxy-5-methyl-5,11-dihydro-6H-benzo[b]pyrido[2,3-e][1,4]diazepin-6-yl)methanone], 112 nM.
